According to patent US20110039873A1, “SUBSTITUTED PYRAZOLO[1,5-a] PYRIDINE COMPOUNDS HAVING MULTI-TARGET ACTIVITY” (priority 2009, published 2011):
pIC50: −log10 of the molar value. Where two headings read alike, the source gives them in different places.

Tests used:
[1] = test system: phosphorylated c-Jun (serine-73); experiment: Phosphorylated c-JUN (A-beta), SH-SY5Y; format: cell-based; settings: Homo sapiens, Amyloid Beta peptide 30 uM, 3 hours, read-out: p-cJun Abeta SH-SY5Y (EC50 in μM)
Method: In 96-well plates either human SH-SY5Y neuroblastoma cells at 2.5×10^4 cells/well or E18 rat neuronal cells at 1.5×10^4 cells/well were seeded. […] Supernatant was discarded and cells were fixed with 4% paraformaldehyde (100 ul/well) for 20 minutes. FACE cell based ELISA assay (Active Motif) was performed specific for quantifying phosphorlyated c-Jun (serine-73).

[2] = biological target: T1, recombinant human phosphodiesterase 10A1 enzyme (Homo sapiens, UniProt Q9Y233); experiment: PDE10 inhibition assay (PDELight); format: biochemical; settings: for IC50: 1 uM cAMP, read-out: PDE 10 Inhibition (IC50 in μM); for PDE-10 inhibition (in words): Table 2
T1 construct: purchased BPS Biosciences; host or cells: Baculovirus infected Sf9 cells
T1 sequence (Q9Y233 1-779 isoform Q9Y233-1): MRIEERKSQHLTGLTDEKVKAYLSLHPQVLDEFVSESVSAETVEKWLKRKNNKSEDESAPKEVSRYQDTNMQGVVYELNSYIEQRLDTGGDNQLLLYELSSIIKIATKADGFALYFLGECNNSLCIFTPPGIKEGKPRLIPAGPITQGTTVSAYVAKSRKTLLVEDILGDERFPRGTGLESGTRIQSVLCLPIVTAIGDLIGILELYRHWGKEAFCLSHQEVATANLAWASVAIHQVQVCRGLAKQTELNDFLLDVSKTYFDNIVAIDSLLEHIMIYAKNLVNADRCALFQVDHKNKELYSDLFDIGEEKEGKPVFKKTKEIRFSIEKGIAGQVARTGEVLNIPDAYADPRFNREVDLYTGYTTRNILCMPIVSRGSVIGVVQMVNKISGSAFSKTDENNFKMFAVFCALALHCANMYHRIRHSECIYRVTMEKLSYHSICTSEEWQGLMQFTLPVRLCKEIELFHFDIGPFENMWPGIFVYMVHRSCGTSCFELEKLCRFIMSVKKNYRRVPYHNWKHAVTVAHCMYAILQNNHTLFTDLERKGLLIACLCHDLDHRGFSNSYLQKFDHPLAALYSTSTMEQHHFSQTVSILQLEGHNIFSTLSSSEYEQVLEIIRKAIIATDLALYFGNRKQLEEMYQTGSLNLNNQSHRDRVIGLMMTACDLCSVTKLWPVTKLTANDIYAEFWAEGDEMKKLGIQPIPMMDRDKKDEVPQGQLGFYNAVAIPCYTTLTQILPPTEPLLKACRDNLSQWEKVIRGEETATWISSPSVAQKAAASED

[3] = test system: phosphorylated c-Jun (serine-73); experiment: Phosphorylated c-JUN (A-beta), E18 rat neuronal cells; format: cell-based; settings: Amyloid Beta peptide 30 uM, 3 hours, read-out: p-cJun Abeta E18 (EC50 in μM)
Method: In 96-well plates either human SH-SY5Y neuroblastoma cells at 2.5×10^4 cells/well or E18 rat neuronal cells at 1.5×10^4 cells/well were seeded. To each well the following was added, Amyloid Beta peptide 1-25 (source) at a concentration of 30 uM, retinoic acid (10 uM) and test compounds (0-30 uM) and incubated for 3 hours. Supernatant was discarded and cells were fixed with 4% paraformaldehyde (100 ul/well) for 20 minutes. FACE cell based ELISA assay (Active Motif) was performed specific for quantifying phosphorlyated c-Jun (serine-73).

[4] = biological target: T2, recombinant full length human JNK2 enzyme (Homo sapiens, UniProt P45984); experiment: JNK 2 inhibition assay (ATP depletion, luciferase); format: biochemical; settings: for IC50: 10 uM ATP, ATF2 substrate, read-out: JNK 2 Inhibition (IC50 in μM); for pIC50: read-out: IC50 value based upon a JNK 2 inhibition assay (range given)
T2 construct: recombinant full length human JNK2 or JNK3 enzyme; purchased Upstate; host or cells: Sf21 cells
T2 sequence (P45984 whole entry): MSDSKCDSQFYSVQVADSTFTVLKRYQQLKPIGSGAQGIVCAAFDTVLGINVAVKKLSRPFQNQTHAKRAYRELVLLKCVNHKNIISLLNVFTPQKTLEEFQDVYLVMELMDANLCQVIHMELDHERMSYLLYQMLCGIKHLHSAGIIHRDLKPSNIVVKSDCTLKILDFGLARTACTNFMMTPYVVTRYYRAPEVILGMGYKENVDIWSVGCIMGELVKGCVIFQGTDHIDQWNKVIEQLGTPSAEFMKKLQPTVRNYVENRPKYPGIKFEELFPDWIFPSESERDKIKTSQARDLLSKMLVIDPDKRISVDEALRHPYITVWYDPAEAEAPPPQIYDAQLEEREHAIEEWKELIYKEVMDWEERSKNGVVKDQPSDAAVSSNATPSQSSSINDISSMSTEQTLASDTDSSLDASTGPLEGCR
Method: In a 96-well plate, recombinant full length human JNK2 or JNK3 enzyme (40 ng) expressed in Sf21 cells (Upstate) was incubated with the substrate ATF2 (3 uM) for 1 hour in the presence of 10 uM ATP. […] IC50 calculations were plotted using a nonlinear regression curve fit.

[5] = test system: phosphorylated c-Jun (serine-73); experiment: Phosphorylated c-JUN (6-OHDA), SH-SY5Y; format: cell-based; settings: Homo sapiens, 50 uM 6-hydroxydopamine, 1.5 hours, read-out: p-cJun 6-OHDA SH-SY5Y (EC50 in μM)
Method: Human SH-SY5Y neuroblastoma cells were cultured in 96-well plates with 2.5×10^4 cells/well and incubated for 48 hours. 6-hydroxydopamine was added at a concentration of 50 uM in the presence or absence of test compounds (0-30 uM) and incubated for 1.5 hours. Supernatant was discarded and cells were fixed with 4% paraformaldehyde (100 ul/well) for 20 minutes. FACE cell based ELISA assay (Active Motif) was performed specific for quantifying phosphorlyated c-Jun (serine-73).

[6] = biological target: T3, recombinant full length human JNK3 enzyme (Homo sapiens, UniProt P53779); experiment: JNK 3 inhibition assay (ATP depletion, luciferase); format: biochemical; settings: for IC50: 10 uM ATP, ATF2 substrate; for JNK-3 inhibition (in words): see Table 2
T3 construct: recombinant full length human JNK2 or JNK3 enzyme; purchased Upstate; host or cells: Sf21 cells
T3 sequence (P53779 whole entry): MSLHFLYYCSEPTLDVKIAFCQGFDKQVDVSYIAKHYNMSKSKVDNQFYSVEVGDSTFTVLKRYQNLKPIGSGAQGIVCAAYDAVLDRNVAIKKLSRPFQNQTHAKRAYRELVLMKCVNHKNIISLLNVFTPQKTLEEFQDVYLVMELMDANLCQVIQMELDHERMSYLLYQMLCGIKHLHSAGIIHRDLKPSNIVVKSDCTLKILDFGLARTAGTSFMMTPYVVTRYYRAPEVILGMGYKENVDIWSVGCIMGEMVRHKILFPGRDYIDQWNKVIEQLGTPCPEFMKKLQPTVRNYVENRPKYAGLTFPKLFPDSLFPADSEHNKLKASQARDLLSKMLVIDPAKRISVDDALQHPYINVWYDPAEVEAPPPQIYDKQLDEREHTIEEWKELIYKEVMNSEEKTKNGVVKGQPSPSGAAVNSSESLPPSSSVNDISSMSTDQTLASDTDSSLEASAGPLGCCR
Method: In a 96-well plate, recombinant full length human JNK2 or JNK3 enzyme (40 ng) expressed in Sf21 cells (Upstate) was incubated with the substrate ATF2 (3 uM) for 1 hour in the presence of 10 uM ATP. […] The ATP levels were quantified using luciferase with luminescence read on a Victor Light 1420 luminometer. IC50 calculations were plotted using a nonlinear regression curve fit.

[7] = test system: Mouse BV-2 microglial cells; experiment: BV-2 glial cell assay (TNF-α and MCP-1 by Luminex); format: cell-based; settings: for EC50: Mus musculus, BV-2, LPS and IFN-γ activated, 20 hours; for inhibiting glial cell activation (TNF-α and/or MCP-1): Table 3
Method: Mouse BV-2 microglial cells were seeded on 96-well plates at a concentration of 3×10^4 cells/well. Cells were activated with 100 ng/mL LPS and IFN-γ (100 ng/mL) in the presence or absence of test compounds (0-30 uM). Following incubation for 20 hours, cells were spun down and supernatant collected. The supernatant was analyzed via Luminex for the presence of TNF-α and MCP-1.

[8] = test system: rat chronic constriction injury (CCI) model of neuropathic pain; experiment: Rat chronic constriction injury (CCI) model of neuropathic pain; format: in vivo
[9] = Oral pharmacokinetic evaluation; format: in vivo, rat; settings: Sprague-Dawley rats; for AUC(0-t) / Cmax / half-life: male, rat, plasma; for AUC(0-t): read-out: Oral PK AUClast; for Cmax: read-out: Oral PK Cmax; for half-life: Sprague-Dawley, po, 15 mg/kg
Method: Three male Sprague-Dawley rats were dosed orally via gavage with 15 mg/kg of test compound. Serial blood samples were collected from the jugular vein at 5, 15, and 30 min, 1, 3, and 6 hours post dosing. Samples were processed for plasma via centrifugation and plasma samples were stored frozen prior to analysis via a sensitive and specific HPLC/MS/MS method. PK parameters were calculated using WinNonLin (Pharsight).

[10] = test system: at least one of JNK 3 or JNK 2 and at least one of PDE 10 or PDE 4; experiment: Dual inhibition (phosphodiesterase and JNK); format: biochemical, human; settings: IC50 JNK 3 or JNK 2 less than about 5.00 μM and PDE 10 or PDE 4 less than about 20.0 or 30.0 μM
Method: In a 96-well plate, recombinant full length human JNK2 or JNK3 enzyme (40 ng) expressed in Sf21 cells (Upstate) was incubated with the substrate ATF2 (3 uM) for 1 hour in the presence of 10 uM ATP. The amount of ATP depletion by the JNK enzyme is measured in the presence or absence of test compounds (0-30 uM). The ATP levels were quantified using luciferase with luminescence read on a Victor Light 1420 luminometer. IC50 calculations were plotted using a nonlinear regression curve fit.
(§1) In a 96-well plate, the catalytic domain of phosphodiesterase 4B enzyme (40 mU/well) cloned from human brain (Scottish Biomedical) was combined with 5 uM cAMP substrate (Sigma). Test compounds (0-30 uM) or vehicle (0.5% DMSO) were added to the enzyme/substrate and incubated 1 hour. Using a PDELight® kit (Cambrex), the amount of AMP produced in the reaction from the hydrolysis of cAMP was quantified using PDELight AMP Detection Reagent which converts the AMP directly to ATP. The assay uses luciferase, which catalyses the formation of light from the newly formed ATP and luciferin. The luminescence was read on a Victor Light 1420 luminometer. IC50 calculations were plotted using a nonlinear regression curve fit.
as §1, with “plate, recombinant human” for “plate, the catalytic domain of”, “phosphodiesterase 10A1” for “phosphodiesterase 4B”, “enzyme (10 U/well) expressed in Baculovirus infected Sf9 cells (BPS Biosciences)” for “enzyme (40 mU/well) cloned from human brain (Scottish Biomedical)”, “with 1” for “with 5”

[11] = biological target: T4, catalytic domain of phosphodiesterase 4B enzyme cloned from human brain (Homo sapiens, UniProt Q07343); experiment: PDE4 inhibition assay (PDELight); format: biochemical; settings: for IC50: 5 uM cAMP, read-out: PDE 4 Inhibition (IC50 in μM)
T4 construct: the catalytic domain of phosphodiesterase 4B enzyme; purchased Scottish Biomedical
T4 sequence (Q07343 330-659 limits assumed): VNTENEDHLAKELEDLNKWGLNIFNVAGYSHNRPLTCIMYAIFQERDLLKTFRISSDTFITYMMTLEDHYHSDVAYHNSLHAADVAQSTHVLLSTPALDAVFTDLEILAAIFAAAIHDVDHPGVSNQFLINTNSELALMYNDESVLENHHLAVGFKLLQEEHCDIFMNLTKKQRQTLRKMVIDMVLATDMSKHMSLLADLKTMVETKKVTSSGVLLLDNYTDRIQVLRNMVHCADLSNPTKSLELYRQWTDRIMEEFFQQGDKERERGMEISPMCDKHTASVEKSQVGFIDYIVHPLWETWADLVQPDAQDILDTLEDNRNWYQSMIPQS
Procedure, shortened: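 Human PDE4B catalytic domain (40 mU/well) incubated with 5 uM cAMP. AMP formed was converted to ATP and measured by luciferase luminescence (PDELight). IC50 derived by nonlinear regression curve fit.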

Water solubility = format: physicochemical; settings: defined as at least 10 milligrams per milliliter in water at 25° C. and pH 7.0
Method: By “water soluble” is meant a compound that is soluble in water to an extent of at least 10 milligrams per milliliter in water at 25° C. and a pH 7.0.

[12] = read-out: MCP-1 BV-2 (EC50 in μM)
[13] = read-out: TNF-a BV-2 (EC50 in μM)
[14] = dose not given, 50% paw withdrawal threshold, von Frey
[15] = 15 mg/kg oral gavage, read-out: Oral PK T½ (converted)

Row | EC50 [1] [µM] | IC50 [2] [µM] | EC50 [3] [µM] | IC50 [4] [µM] | EC50 [5] [µM] | IC50 [6] [µM] | EC50 [7, 12] [µM] | EC50 [7, 13] [µM] | PDE-10 inhibition (in words) [2] | pIC50 [4] | AUC(0-t) ([9]; 15 mg/kg oral gavage) [ng·h/mL] | Cmax ([9]; 15 mg/kg oral gavage) [ng/mL] | dual inhibition (phosphodiesterase and JNK) [10] | PDE-4 inhibition (in words) [11] | IC50 [11] [µM] | JNK-3 inhibition (in words) [6] | Compound | IP CCI efficacy (Change in grams) [8, 14] [grams] | inhibiting glial cell activation (TNF-α and/or MCP-1) [7] | further results
1 | 3.8 | 6.3 | > 30 | > 100 | > 30 | > 100 | 42 | 2.7 |  |  |  |  |  |  |  |  | CC(C)C(=O)c1c(C(C)C)nn2ccccc12 [AV411, 1-(2-isopropylpyrazolo[1,5-a]pyridin-3-yl)-2-methylpropan-1-one, reference compound] |  |  | 
2 | > 30 | 8.9 | 3.6 |  | > 30 | 4.1 |  |  | particularly effective | 5.70 to 8.00 | 32 | 13 | effective dual inhibitors | particularly effective | 11.5 |  | CCCNc1nccc(-c2c(C(C)C)nn3ccccc23)n1 [AV1153, 4-(2-isopropylpyrazolo[1,5-a]pyridin-3-yl)-N-propylpyrimidin-2-amine] | 1.85 |  | 
3 | > 10 | 3 | 13 |  | 3.4 | 6 |  |  | particularly effective |  |  |  | effective dual inhibitors | particularly effective | 7.1 |  | CC(C)c1nn2ccccc2c1-c1ccnc(NC2CCCC2)n1 [AV1154, N-cyclopentyl-4-(2-isopropylpyrazolo[1,5-a]pyridin-3-yl)pyrimidin-2-amine] | 0 |  | 
4 | 11 | 38.2 | 37 | 1.3 | 1.4 | 0.4 | 1.1 | 0.9 | particularly effective | 5.70 to 8.00 |  |  | effective dual inhibitors |  | 16.5 | particularly effective | CCCNc1nccc(-c2cnn3ccccc23)n1 [AV1166, N-propyl-4-(pyrazolo[1,5-a]pyridin-3-yl)pyrimidin-2-amine] |  | Particularly effective | 
5 | 5.4 | 35 |  |  | 0.3 | 0.2 | 1.2 | 1.1 |  |  | 35 | 56 | effective dual inhibitors | particularly effective | 6.2 | particularly effective | Cc1cccc2c(-c3ccnc(NC(C)C)n3)cnn12 [AV1183, N-isopropyl-4-(7-methylpyrazolo[1,5-a]pyridin-3-yl)pyrimidin-2-amine] | 0.3 | Particularly effective | half-life [9, 15]: 1.1 h
6 |  | 7.7 |  | 1.6 |  | 1.9 | 0.3 | 1 | particularly effective | 5.70 to 8.00 | 1700 | 420 | effective dual inhibitors | particularly effective | 2.7 | particularly effective | c1ccn2nc(C3CC3)c(-c3ccnc(NC4CC4)n3)c2c1 [AV1200, N-cyclopropyl-4-(2-cyclopropylpyrazolo[1,5-a]pyridin-3-yl)pyrimidin-2-amine] |  | Particularly effective | IP CCI efficacy (Change in grams) ([8]; 10 mg/kg): 0 (10 mg/kg); grams; IP CCI efficacy (Change in grams) ([8]; 20 mg/kg): 1.8 (20 mg/kg) grams; PO CCI efficacy (Change in grams) ([8]; 30 mg/kg): 0 (30 mg/kg); grams; PO CCI efficacy (Change in grams) ([8]; 60 mg/kg): 1.25 (60 mg/kg) grams; water soluble (Water solubility): water soluble; half life following oral dosing (in words) ([9]; oral): particularly prolonged half lives; half-life [9, 15]: 4.7 h; half-life ([9]; oral, read-out: half life following oral dosing): > 3 h
7 |  |  | 7.6 |  | 0.6 | 0.2 |  |  |  |  |  |  |  |  |  |  | Oc1c2ccccc2c2c3c(cccc13)N=N2 [SP600125, reference compound] | 0.5 |  | 
